Experiments:
[1] = system: WM3629 cells; experiment: WST-1 cell viability assay, WM3629; type: cell-based; conditions: WM3629, WST-1, 24 h
Procedure: HCT116 and WM3629 cells were seeded onto polylysine-coated, clear-bottomed, 96-well plates at 15(10)^3 cells per well and allowed to incubate for 24 h. Cells were treated with braftide and 17-AAG mixtures at indicated concentrations for 24 h (37 °C). The WST-1 cell viability assay was carried out according to the manufacturer's protocols (Roche; 11644807001) for 4 h, and absorbance readings were taken at 450 nM in a CLARIOstar plate reader. For the dose–response curves of braftide and 17-AAG, the data were fit to the 4-parameter logistic equation (dose–response fitting equation) in GraphPad Prism (Dotmatics): y=A1+(A2−A1)÷(1+10^(LOGx0−x)p)
Error bars are indicative of the SEM of each point.

[2] = system: HEK293 cells; experiment: Annexin V apoptosis assay, HEK293; type: cell-based, human; conditions: 0, 5, 10, 25, 50, 75, and 100 μM braftide, 4 h, n = 3
Procedure: HEK293 cells and HCT116 cells were treated with either control or braftide at the indicated concentrations for 4 h. After treatment, both the floating and adherent cell populations were collected and adjusted with PBS (final concentration: 1 × 10^5 cells/ml). The cells were then mixed with the Annexin V (Cytex; FCCH100108) reagent in a 5:1 ratio (100 μl of cells mixed with 20 μl of Annexin V reagent) and allowed to stain in the dark, at room temperature for 15 min. The cells were then analyzed on a Guava Muse Cell Analyzer (Millipore).

[3] = system: BRAF–CDC37/HSP90 chaperone complex; experiment: Co-IP of BRAF-FLAG with endogenous CDC37–HSP90 chaperone complex; type: cell-based, human (HEK293); conditions: HEK293, 50 μM braftide, 4 h, bortezomib pretreatment, three biological replicates
Procedure: HEK293 cells were seeded at 1(10)^6 cells per well for a 6-well plate or 5(10)^6 for 10 cm dishes and incubated until 40% to 60% confluency. Transfection was carried out using a 1:3 DNA:PEI-MAX ratio in OPTI-MEM and allowed 48 h for protein expression. For peptide assays, 48 h post-transfection, cells were treated with TAT–braftide carried in OPTI-MEM at indicated concentrations. Cells were harvested in cold PBS. Harvested cells were lysed in 4% SDS or modified radioimmunoprecipitation assay (RIPA) for co-IP experiments. Quantification of total protein by the bicinchoninic acid assay was carried out according to the manufacturer's protocols (Pierce; catalog no.: 23225).
Transfected HEK293 cells were treated with the indicated treatments and harvested in cold PBS. […] Samples were analyzed via immunoblot.
Western blot band densities were quantified with ImageJ software (National Institutes of Health) and normalized to the indicated loading control. Statistical significance was determined through one-/two-way ANOVA, where indicated, followed by Tukey's honest significant difference post hoc test with corresponding p values (∗p < 0.05, ∗∗p < 0.002, ∗∗∗p < 0.0002, and ∗∗∗∗p < 0.0001). […]

[4] = system: HCT116 cells; conditions: HCT116, previously reported, readout not given; read-out: EC50, braftide, HCT116; cited from earlier work
Source text: Our findings highlight the therapeutic potential of targeting CDC37–client kinase interactions, as oncogenic kinases are intrinsically unstable and thus are more dependent on their association with the HSP90–CDC37 chaperone complex for stability and activation compared with their wildtype counterparts ([4]). […] HCT116 cells harbor an upstream KRAS […]–activating mutation, with a previously reported braftide ...

[5] = system: BRAF–CDC37 interaction; experiment: NanoBiT luminescence CDC37–RAF interaction reporter assay, BRAF^SmBiT–CDC37^LgBiT; type: cell-based, human (HEK293)
Source text: NanoBiT cytomegalovirus MCS BiBiT vector, which contains a BRAF N terminal fused with LgBiT and CRAF N terminal fused with SmBiT, was purchased from Promega. CDC37 LgBiT and CRAF SmBiT was generated using the standard Gibson Assembly (NEB HiFi Assembly) using NanoBiT BiBiT as the vector and following primers: 5′ […] 3′, 5′ […] 3′, 5′ […] 3′, 5′ […] 3′, and CDC37 LgBiT and BRAF SmBiT was generated using the standard Gibson Assembly using NanoBiT BiBiT as the vector and following primers: 5′ […] 3′, 5′ […] 3′, 5′ […] 3′, 5′ […] 3′. Primers were designed to introduce H20A, N22A, I23A triple mutation within the CDC37 FLAG tag and for NanoBiT construct CDC37(HNI/A) LgBit and BRAF SmBiT. Primers were designed to introduce the desired substitutions. The forward primer sequence was 5′ gccgcc[…] 3′, and the reverse primer sequence was 5′ gggggc[…] 3′. Site-directed mutagenesis was carried out using the Q5 Site-Directed Mutagenesis Kit (NEB; E0554) following the manufacturer's protocol.
Twenty-four hours post-transfection, cells were trypsinized, pelleted, resuspended in OptiMEM + 4% fetal bovine serum, and reseeded onto a 96-well plate at 5(10)^4 cells per well and then incubated at 37 °C overnight. Cells were pretreated with 1 μM bortezomib for 5 h and then braftide for 4 h at 0 and 25 μM. After treatment, 10 μM furimazine substrate was added to each well, and luminescence readings were taken at 470 to 480 nm using a CLARIOstar plate reader. Statistical significance was determined through a paired t test where indicated, followed by Tukey's honest significant difference post hoc test with corresponding p values (∗p < 0.05, ∗∗p < 0.01, and ∗∗∗p < 0.001). All graph bars represent the mean ± SD with individual data points per biological replicate with corresponding p values.

[6] = system: selected kinases in HCT116 cells; experiment: Immunoblot of selected kinases in HCT116 cells; type: cell-based; conditions: Western blot; for protein levels of Chk2, PKCδ, and SRPK1: HCT116, braftide, Fig. S12A
Procedure: Western blot band densities were quantified with ImageJ software (National Institutes of Health) and normalized to the indicated loading control. Statistical significance was determined through one-/two-way ANOVA, where indicated, followed by Tukey's honest significant difference post hoc test with corresponding p values (∗p < 0.05, ∗∗p < 0.002, ∗∗∗p < 0.0002, and ∗∗∗∗p < 0.0001). All graph bars represent the mean ± SD with individual data points per biological replicate with corresponding p values.

Substance: GRKKRRQRRRPQ-miniPEG-TRHVNILLFM [Braftide]
- synergy of braftide and 17-AAG, WM3629 [1]: synergy between braftide and 17-AAG
- apoptosis (Annexin V), HEK293 [2]: triggers apoptosis
- apoptosis (Annexin V), HEK293 ([2]; listed as braftide): triggered dose-dependent apoptosis
- association of BRAF with CDC37 and HSP90 [3]: reduced their association with CDC37 and HSP90 compared with the nontreated control
- EC50 [4]: 7.1 ± 0.5 µM
- NanoBiT luminescence, BRAF^SmBiT–CDC37^LgBiT ([5]; HEK293, 25 μM braftide, 4 h, 1 μM bortezomib pretreatment 5 h, 10 μM furimazine, 470 to 480 nm): reduction in luminescence, reflecting a decrease in the CDC37–RAF interaction
- protein levels of NanoBiT constructs (immunoblot control) ([5]; HEK293, braftide, bortezomib pretreatment, BRAF and CRAF constructs (Fig. 1, K and M)): protein levels remained the same with bortezomib pretreatment
- protein expression levels of downregulated kinases ([6]; HCT116, 10 μM braftide, 1 h, n = 9): reduced protein expression levels of GSK3α, S6, AKT1, TAK, FAK, BRAF, CRAF, MEK1/2, and ERK1/2
- protein levels of Chk2, PKCδ, and SRPK1 [6]: unaffected by Braftide treatment
- protein levels of Chk2, PKCδ, and SRPK1 ([6]; listed as braftide): protein levels of these kinases remain unchanged after braftide treatment

Reference: paper PMC12830207, “Targeting the protein–protein interaction between the CDC37 cochaperone and client kinases by an allosteric RAF dimer breaker” (The Journal of Biological Chemistry, 2025)
